As a reminder, the IC50 is the midpoint of a concentration-inhibition curve.

The target in assay [1] is E. coli RNA polymerase σ^70 holoenzyme (Escherichia coli, UniProt P0A8T7+P0A8V2). Put plainly: Fluorescence-detected RNA polymerase assay, E. coli RNA polymerase. The assay is classed as biochemical. The following applies: read-out: IC50 E. coli RNAP.
Assay [2] addresses M. tuberculosis RNA polymerase core enzyme, M. tuberculosis σ^A (Mycobacterium tuberculosis, UniProt P9WGY7+P9WGY9). Put plainly: Fluorescence-detected RNA polymerase assay, M. tuberculosis RNA polymerase. The assay is classed as biochemical. The note with it: read-out: IC50 M. tuberculosis RNAP.
For assay [3], the system named is Staphylococcus aureus ATCC 12600. Put plainly: MIC, spiral gradient endpoint assay, S. aureus ATCC 12600. The assay is classed as cell-based. The following applies: ATCC12600; Staphylococcus aureus ATCC 12600.
Assay [4] deals with methicillin-resistant Staphylococcus aureus (MRSA) strain BAA-1707 (USA-400; MW2). Put plainly: MIC, spiral gradient endpoint assay, MRSA BAA-1707. The following applies: Staphylococcus aureus; read-out: MIC S. aureus MRSA BAA-1707. The assay is classed as cell-based.
Assay [5] has as its system methicillin-resistant Staphylococcus aureus (MRSA) strain BAA-1717 (USA-300). The assay is described as follows: MIC, spiral gradient endpoint assay, MRSA BAA-1717. The note with it: Staphylococcus aureus; read-out: MIC S. aureus MRSA BAA-1717. The class given is cell-based.
Assay [6] has as its system rifampin-resistant Staphylococcus aureus (RRSA) strain ATCC 12600-Rif (H526N). The assay is described as follows: MIC, spiral gradient endpoint assay, RRSA 12600-Rif. The assay is classed as cell-based. The following applies: Staphylococcus aureus, ATCC12600; read-out: MIC S. aureus RRSA 12600-Rif.
Assay [7] relates to Acinetobacter baumannii ATCC 19606. The assay is described as follows: MIC, spiral gradient endpoint assay, A. baumannii. The class given is cell-based. The following applies: ATCC19606; Acinetobacter baumannii ATCC 19606.
The subject of assay [8] is Escherichia coli D21f2tolC. The assay is described as follows: MIC, spiral gradient endpoint assay, E. coli D21f2tolC. The assay is classed as cell-based. The following applies: Escherichia coli, D21F2TOLC, read-out: MIC E. coli D21f2toIC.
The subject of assay [9] is Mycobacterium tuberculosis H37Rv. Put plainly: MIC, microplate Alamar Blue assay, M. tuberculosis. The class given is cell-based.
Assay [10] deals with Bacillus anthracis Vollum 1b. The assay is described as follows: microbe, parasite or virus in culture. The assay is classed as cell-based. The following applies: Bacillus anthracis, VOLLUM1B, read-out: MIC B. anthracis Vollum-1b.
Assay [11] has as its system Francisella tularensis SCHU4. The assay is described as follows: microbe, parasite or virus in culture. The class given is cell-based. The following applies: Francisella tularensis, SCHU4, read-out: MIC F. tularensis SCHU4.
Another assay relates to Burkholderia mallei CHN7. Put plainly: microbe, parasite or virus in culture. The note with it: Burkholderia mallei, CHN7, read-out: MIC B. mallei CHN7. The class given is cell-based.
The test system of assay [12] is Burkholderia pseudomallei Human/Blood/OH/US/1994. Put plainly: microbe, parasite or virus in culture. The assay is classed as cell-based. The note with it: Burkholderia pseudomallei, read-out: MIC B. pseudomallei Human/Blood/OH.
The subject of a further assay is Brucella melitensis 16M. Put plainly: microbe, parasite or virus in culture. The class given is cell-based. The following applies: Brucella melitensis, 16M, read-out: MIC B. melitensis 16M.
Assay [13] concerns the target S. aureus RNA polymerase core enzyme, S. aureus σ^A (Staphylococcus aureus, UniProt P47768+Q2G0N5). The assay is described as follows: Fluorescence-detected RNA polymerase assay, S. aureus RNA polymerase. The class given is biochemical. The following applies: read-out: IC50 S. aureus RNAP.
In another assay the test system is Yersinia pestis C092. The assay is described as follows: microbe, parasite or virus in culture. The class given is cell-based. The note with it: Yersinia pestis, C092, read-out: MIC Y. pestis C092.

Molecules are shown by their SMILES. Some results are limits rather than exact numbers.

Sequence of E. coli RNA polymerase σ^70 holoenzyme (P0A8T7 whole entry): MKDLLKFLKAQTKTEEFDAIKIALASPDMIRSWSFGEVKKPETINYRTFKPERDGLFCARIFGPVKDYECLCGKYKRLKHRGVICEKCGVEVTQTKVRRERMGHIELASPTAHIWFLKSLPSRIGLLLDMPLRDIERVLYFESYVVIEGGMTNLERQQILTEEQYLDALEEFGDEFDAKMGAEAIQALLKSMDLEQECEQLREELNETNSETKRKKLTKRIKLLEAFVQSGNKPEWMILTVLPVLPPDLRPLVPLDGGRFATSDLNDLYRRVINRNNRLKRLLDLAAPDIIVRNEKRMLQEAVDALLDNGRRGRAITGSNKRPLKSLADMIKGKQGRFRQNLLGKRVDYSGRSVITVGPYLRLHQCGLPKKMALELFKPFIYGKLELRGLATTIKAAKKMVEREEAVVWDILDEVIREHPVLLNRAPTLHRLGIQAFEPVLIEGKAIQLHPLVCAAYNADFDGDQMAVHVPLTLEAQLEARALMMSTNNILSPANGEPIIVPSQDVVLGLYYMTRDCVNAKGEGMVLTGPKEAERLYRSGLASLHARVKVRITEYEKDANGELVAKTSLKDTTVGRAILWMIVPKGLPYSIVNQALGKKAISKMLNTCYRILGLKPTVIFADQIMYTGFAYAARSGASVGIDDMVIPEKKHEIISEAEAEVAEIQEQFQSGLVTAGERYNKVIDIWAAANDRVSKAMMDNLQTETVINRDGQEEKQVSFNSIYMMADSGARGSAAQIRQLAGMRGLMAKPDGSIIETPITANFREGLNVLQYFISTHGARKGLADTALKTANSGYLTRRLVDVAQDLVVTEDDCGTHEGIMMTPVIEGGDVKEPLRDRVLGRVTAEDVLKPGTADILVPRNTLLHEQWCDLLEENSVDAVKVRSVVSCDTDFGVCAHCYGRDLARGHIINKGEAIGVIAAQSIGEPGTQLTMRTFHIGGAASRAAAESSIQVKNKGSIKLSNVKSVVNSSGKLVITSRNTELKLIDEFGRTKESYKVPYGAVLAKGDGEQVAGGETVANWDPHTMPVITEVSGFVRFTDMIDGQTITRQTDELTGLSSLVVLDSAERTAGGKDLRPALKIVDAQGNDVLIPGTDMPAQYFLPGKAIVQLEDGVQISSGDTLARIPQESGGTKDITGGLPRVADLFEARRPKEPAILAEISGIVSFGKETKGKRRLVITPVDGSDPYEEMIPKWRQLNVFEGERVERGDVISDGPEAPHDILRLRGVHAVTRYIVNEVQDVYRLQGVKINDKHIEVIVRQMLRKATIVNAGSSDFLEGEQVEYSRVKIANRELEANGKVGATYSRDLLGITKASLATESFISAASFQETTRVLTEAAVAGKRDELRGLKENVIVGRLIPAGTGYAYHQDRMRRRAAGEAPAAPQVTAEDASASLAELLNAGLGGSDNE
Sequence of E. coli RNA polymerase σ^70 holoenzyme (P0A800 whole entry, further chain): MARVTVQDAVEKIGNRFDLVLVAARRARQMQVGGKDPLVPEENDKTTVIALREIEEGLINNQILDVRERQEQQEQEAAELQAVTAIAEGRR
Sequence of E. coli RNA polymerase σ^70 holoenzyme (P0A8V2 whole entry): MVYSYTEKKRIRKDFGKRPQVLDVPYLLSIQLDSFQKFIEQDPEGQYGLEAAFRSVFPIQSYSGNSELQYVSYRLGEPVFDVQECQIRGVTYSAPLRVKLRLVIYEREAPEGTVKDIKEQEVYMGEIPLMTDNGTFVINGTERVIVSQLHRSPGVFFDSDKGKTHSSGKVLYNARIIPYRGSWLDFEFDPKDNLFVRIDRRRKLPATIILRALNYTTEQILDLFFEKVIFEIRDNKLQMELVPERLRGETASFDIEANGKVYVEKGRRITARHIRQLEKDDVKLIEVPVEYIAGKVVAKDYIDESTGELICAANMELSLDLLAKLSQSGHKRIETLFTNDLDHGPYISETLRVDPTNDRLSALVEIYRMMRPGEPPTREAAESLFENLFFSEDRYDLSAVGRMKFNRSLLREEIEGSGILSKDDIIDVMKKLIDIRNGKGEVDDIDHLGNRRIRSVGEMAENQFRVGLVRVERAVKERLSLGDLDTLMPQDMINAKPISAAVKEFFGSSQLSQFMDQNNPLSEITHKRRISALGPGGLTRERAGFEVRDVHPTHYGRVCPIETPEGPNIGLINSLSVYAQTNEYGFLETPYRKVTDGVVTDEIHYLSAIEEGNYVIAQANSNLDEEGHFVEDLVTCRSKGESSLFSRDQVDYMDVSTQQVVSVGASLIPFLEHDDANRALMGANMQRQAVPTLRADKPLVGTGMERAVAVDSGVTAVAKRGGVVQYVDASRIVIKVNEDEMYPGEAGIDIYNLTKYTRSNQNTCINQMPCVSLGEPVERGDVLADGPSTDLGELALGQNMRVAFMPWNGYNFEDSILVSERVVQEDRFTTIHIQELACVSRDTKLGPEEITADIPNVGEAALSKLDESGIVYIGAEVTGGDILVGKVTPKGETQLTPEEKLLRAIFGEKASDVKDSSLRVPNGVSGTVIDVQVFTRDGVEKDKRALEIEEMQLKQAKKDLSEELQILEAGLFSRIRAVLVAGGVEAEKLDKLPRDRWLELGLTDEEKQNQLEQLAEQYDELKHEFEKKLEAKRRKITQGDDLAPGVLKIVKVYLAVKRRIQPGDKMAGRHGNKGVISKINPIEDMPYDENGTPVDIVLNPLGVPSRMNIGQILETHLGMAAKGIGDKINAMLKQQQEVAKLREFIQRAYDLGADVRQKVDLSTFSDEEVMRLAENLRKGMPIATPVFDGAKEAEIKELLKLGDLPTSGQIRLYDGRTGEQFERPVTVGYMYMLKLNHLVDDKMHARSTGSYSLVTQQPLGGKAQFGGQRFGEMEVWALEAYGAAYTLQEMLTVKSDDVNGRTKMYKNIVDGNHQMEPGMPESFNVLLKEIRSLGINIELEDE
Sequence of E. coli RNA polymerase σ^70 holoenzyme (P00579 whole entry, further chain): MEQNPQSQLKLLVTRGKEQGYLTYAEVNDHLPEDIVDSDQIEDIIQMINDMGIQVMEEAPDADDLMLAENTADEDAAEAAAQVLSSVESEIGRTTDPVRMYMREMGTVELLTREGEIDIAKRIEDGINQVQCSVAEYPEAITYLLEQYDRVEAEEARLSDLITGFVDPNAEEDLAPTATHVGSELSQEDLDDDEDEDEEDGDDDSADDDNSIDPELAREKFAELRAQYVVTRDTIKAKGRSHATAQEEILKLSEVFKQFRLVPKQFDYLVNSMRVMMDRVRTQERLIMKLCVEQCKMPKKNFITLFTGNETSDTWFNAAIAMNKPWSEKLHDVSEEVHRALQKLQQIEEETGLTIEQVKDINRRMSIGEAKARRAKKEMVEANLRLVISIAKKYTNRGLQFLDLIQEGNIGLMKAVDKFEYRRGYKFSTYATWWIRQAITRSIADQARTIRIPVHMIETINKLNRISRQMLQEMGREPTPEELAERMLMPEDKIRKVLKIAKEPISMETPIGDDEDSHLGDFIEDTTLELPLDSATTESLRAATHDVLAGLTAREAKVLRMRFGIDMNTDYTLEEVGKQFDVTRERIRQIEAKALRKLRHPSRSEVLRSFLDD
Sequence of E. coli RNA polymerase σ^70 holoenzyme (P0A7Z4 whole entry, further chain): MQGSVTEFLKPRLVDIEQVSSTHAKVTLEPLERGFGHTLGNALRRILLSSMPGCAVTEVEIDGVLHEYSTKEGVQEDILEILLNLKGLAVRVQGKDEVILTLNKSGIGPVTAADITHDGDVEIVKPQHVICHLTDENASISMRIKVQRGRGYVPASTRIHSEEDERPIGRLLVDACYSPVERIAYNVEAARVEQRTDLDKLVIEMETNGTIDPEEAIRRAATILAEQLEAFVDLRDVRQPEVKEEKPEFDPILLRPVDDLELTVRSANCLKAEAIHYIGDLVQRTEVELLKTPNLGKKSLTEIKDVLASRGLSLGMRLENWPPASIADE

Regarding `CCCOCc1ccc(C=C(C)C(=O)c2c(O)cc(C(C)CC/C=C/NC(=O)OC)oc2=O)s1` (mixture of isomers) [APY109, methyl ((1E)-5-(4-hydroxy-3-(2-methyl-3-(5-(propoxymethyl)thiophen-2-yl)acryloyl)-2-oxo-2H-pyran-6-yl)hex-1-en-1-yl)carbamate], the IC50 in assay [1] turned out to be 80 nM; in assay [2], 800 nM. Besides, the MIC in assay [3] is 3 µg/mL; in assay [4] it was 7 µg/mL; in assay [5], 7 µg/mL; in [6], 7 µg/mL; in [7], greater than 40 µg/mL; in assay [8], 0.2 µg/mL. In assay [9], the MIC worked out at 30 µg/mL.
As to `COC(=O)N/C=C/CCC(C)c1cc(O)c(C(=O)C(C)=Cc2ccc(OC(C)C)s2)c(=O)o1` (mixture of isomers) [APY107, methyl ((1E)-5-(4-hydroxy-3-(3-(5-isopropoxythiophen-2-yl)-2-methylacryloyl)-2-oxo-2H-pyran-6-yl)hex-1-en-1-yl)carbamate], the IC50 in assay [1] is 20 nM; in [2], 400 nM. The MIC was 2 µg/mL in assay [3]; 2 µg/mL in assay [4]; 2 µg/mL in assay [5]; 2 µg/mL in [6]; greater than 40 µg/mL in [7]; 0.1 µg/mL in [8]. For the same compound, the MIC in [9] stood at 10 µg/mL.
As for `COC(=O)N/C=C/CCC(C)c1cc(O)c(C(=O)C(C)=Cc2ccc(OC(C)C)cc2)c(=O)o1` (mixture of isomers) [APY66, methyl (E)-5-(4-hydroxy-5-((E/Z)-3-(4-isopropoxyphenyl)-2-methylacryloyl)-6-oxo-6H-pyran-2-yl)hex-1-enylcarbamate], in assay [1], the IC50 came to 1000 nM. Also, the MIC in assay [3] is 2 µg/mL; in assay [4], 2 µg/mL; in assay [5], 2 µg/mL; in [6] it was 3 µg/mL; in assay [7], greater than 40 µg/mL; in assay [8] it was 0.8 µg/mL. Further, the MIC in assay [9] is 6 µg/mL; in assay [10], 10 µg/mL; in assay [11], greater than 50 µg/mL; with Burkholderia mallei CHN7, greater than 50 µg/mL; in assay [12] it was greater than 50 µg/mL; in the assay with Brucella melitensis 16M, 10 µg/mL.
For `COC(=O)N/C=C/CCCc1cc(O)c(C(=O)C(C)=Cc2ccc(CCC(C)C)s2)c(=O)o1` (mixture of isomers) [APY91, methyl ((1E)-5-(4-hydroxy-3-(3-(5-isopentylthiophen-2-yl)-2-methylacryloyl)-2-oxo-2H-pyran-6-yl)pent-1-en-1-yl)carbamate], the results for the IC50 in [1], in [13] and in [2] were 20 nM, 600 nM and 400 nM, respectively. The MIC turned out to be 0.7 µg/mL in [3]; 2 µg/mL in assay [4]; 2 µg/mL in [5]; 2 µg/mL in assay [6]; 9 µg/mL in [7]; 0.08 µg/mL in assay [8]. The compound also showed an MIC in [9] of 50 µg/mL.
Take `COC(=O)N/C=C/CCCc1cc(O)c(C(=O)C(C)=Cc2ccc(CCCC(F)(F)F)s2)c(=O)o1` (mixture of isomers) [APY90, methyl ((1E)-5-(4-hydroxy-3-(2-methyl-3-(5-(4,4,4-trifluorobutyl)thiophen-2-yl)acryloyl)-2-oxo-2H-pyran-6-yl)pent-1-en-1-yl)carbamate]: the concentration for half-maximal inhibition (IC50) turned out to be 30 nM in assay [1], 800 nM in assay [13] and 300 nM in [2]. The MIC in assay [3] came out at 0.9 µg/mL; in [4], 2 µg/mL; in [5], 2 µg/mL; in assay [6], 2 µg/mL; in [7] it was 10 µg/mL; in [8] it was 0.07 µg/mL. This compound gave an MIC in [9] of 10 µg/mL.
`COC(=O)N/C=C/CCC(C)c1cc(O)c(C(=O)C(C)=Cc2ccc(CCC3CC3)s2)c(=O)o1` (mixture of isomers) [APY95, methyl ((1E)-5-(3-(3-(5-(2-cyclopropylethyl)thiophen-2-yl)-2-methylacryloyl)-4-hydroxy-2-oxo-2H-pyran-6-yl)hex-1-en-1-yl)carbamate]: the figures for the concentration for half-maximal inhibition (IC50) in assay [1] and in [2] were 5 nM and 50 nM, respectively. The MIC came out at 0.8 µg/mL in [3]; 0.3 µg/mL in assay [4]; 0.4 µg/mL in assay [5]; 0.5 µg/mL in assay [6]; 10 µg/mL in [7]; 0.1 µg/mL in assay [8]. Moreover, the MIC in [9] was 10 µg/mL.
Turning to `CCCCc1ccc(C=C(C)C(=O)c2c(O)cc(C(C)CC/C=C/NC(=O)OC)oc2=O)cc1` (mixture of isomers) [APY41, methyl (E)-5-(3-((E/Z)-3-(4-butylphenyl)-2-methylacryloyl)-4-hydroxy-2-oxo-2H-pyran-6-yl)hex-1-enylcarbamate], the IC50 in assay [1] came to 8 nM. Besides, the MIC is 0.8 µg/mL in [3]; 0.6 µg/mL in [4]; 0.6 µg/mL in assay [5]; 0.9 µg/mL in assay [6]; greater than 40 µg/mL in assay [7]; less than 0.2 µg/mL in assay [8]. The MIC in assay [9] worked out at 3 µg/mL; in assay [10] it was 2 µg/mL; in assay [11], 6 µg/mL; in the assay with Yersinia pestis C092, 30 µg/mL; with Burkholderia mallei CHN7, 6 µg/mL; in assay [12], 10 µg/mL. The MIC in the assay with Brucella melitensis 16M is 0.8 µg/mL.
As to `COC(=O)N/C=C/CCC(C)c1cc(O)c(C(=O)C(C)=Cc2ccc(CCC(C)C)cc2)c(=O)o1` (mixture of isomers) [APY73, methyl (E)-5-(4-hydroxy-5-((E/Z)-3-(4-isopentylphenyl)-2-methylacryloyl)-6-oxo-6H-pyran-2-yl)hex-1-enylcarbamate], in assay [1], the IC50 was found to be 40 nM. In addition, the MIC in assay [3] is 0.6 µg/mL; in [4] it was 1 µg/mL; in assay [5], 1 µg/mL; in assay [6], 2 µg/mL; in [7] it was greater than 40 µg/mL; in assay [8], 0.3 µg/mL. Also, the MIC came out at 2 µg/mL in assay [10]; 10 µg/mL in assay [11]; 50 µg/mL with Burkholderia mallei CHN7; 50 µg/mL in [12]; 3 µg/mL in the assay with Brucella melitensis 16M.
In the case of `CCOCc1ccc(C=C(C)C(=O)c2c(O)cc(C(C)CC/C=C/NC(=O)OC)oc2=O)s1` (mixture of isomers) [APY108, methyl ((1E)-5-(3-(3-(5-(ethoxymethyl)thiophen-2-yl)-2-methylacryloyl)-4-hydroxy-2-oxo-2H-pyran-6-yl)hex-1-en-1-yl)carbamate], the IC50 in assay [1] worked out at 300 nM; in [2], 700 nM. The MIC was 10 µg/mL in assay [3]; 20 µg/mL in [4]; 20 µg/mL in assay [5]; 20 µg/mL in assay [6]; greater than 40 µg/mL in assay [7]; 0.4 µg/mL in [8]. The same compound registered an MIC in assay [9] of 30 µg/mL.
`CCCCc1ccc(C=C(C)C(=O)c2c(O)cc(C(C)CC/C=C/NC(=O)OC)oc2=O)s1` (mixture of isomers) [APY16, methyl (E)-5-(3-((E/Z)-3-(5-butylthiophen-2-yl)-2-methylacryloyl)-4-hydroxy-2-oxo-2H-pyran-6-yl)hex-1-enylcarbamate]: the values for the half-maximal inhibitory concentration (IC50) in [1], in assay [13] and in assay [2] were 30 nM, 100 nM and 300 nM, respectively. The MIC in assay [3] amounted to 0.6 µg/mL; in [7], 20 µg/mL; in [8] it was 0.1 µg/mL; in assay [9] it was 30 µg/mL; in assay [10], 2 µg/mL; in [11], 0.8 µg/mL. The MIC was 10 µg/mL with Yersinia pestis C092, 2 µg/mL in the assay on Burkholderia mallei CHN7, 6 µg/mL in assay [12] and 0.8 µg/mL in the assay with Brucella melitensis 16M.
As to `CCCCCCc1cccc(C=C(C)C(=O)c2c(O)cc(C(C)CC/C=C/NC(=O)OC)oc2=O)c1` (mixture of isomers) [APY34, methyl (E)-5-(3-((E/Z)-3-(3-hexylphenyl)-2-methylacryloyl)-4-hydroxy-2-oxo-2H-pyran-6-yl)hex-1-enylcarbamate], the values for the IC50 in assay [1], in assay [13] and in [2] were 10 nM, 50 nM and 3000 nM, respectively. Also, the MIC in assay [3] was greater than 40 µg/mL; in assay [7], 10 µg/mL; in assay [8], 0.3 µg/mL; in assay [9], 30 µg/mL; in [10], 3 µg/mL; in [11], 6 µg/mL. For the same compound, the MIC is greater than 50 µg/mL with Yersinia pestis C092, 3 µg/mL in the assay on Burkholderia mallei CHN7, 30 µg/mL in [12] and 3 µg/mL with Brucella melitensis 16M.

Values taken from patent publication US9592221B2, “Antibacterial agents: aryl myxopyronin derivatives” (priority 2012, dated 2017).
